The target in this test is T1, recombinant human ACSS2 (Homo sapiens, UniProt Q9NR19).
T1 construct: purchased Origene TP304260
As to the kind of experiment: ACSS2 biochemical assay (Transcreener AMP assay). Particulars: in vitro biochemical TranScreener assay; mean±S.D., n≥3 (FIG. 1C). Here is the method:
ACSS2 enzyme activity was measured using the TRANSCREENER® TRF AMP/GMP assay (Bellbrook Labs). Recombinant ACSS2 was purchased from Origene. The assay was performed in white, opaque, low volume 384 well plates. Test compounds were diluted in 100% DMSO and then 100 nL of each dilution was transferred using the Janus MDT Nanohead to assay plates containing 3 μL ACSS2 (2.5 nM) in assay buffer (30 mM HEPES, pH 7.4, 140 mM NaCl, 2 mM MgCl2, 5 mM sodium acetate, 2 mM DTT, 0.005% Brij35). Three microliters of substrate mix containing 100 μM ATP and 10 μM coenzyme A was added to the plates followed by a 120 min incubation. The final concentrations of enzyme and substrates in the reaction mix was 1.25 nM ACSS2, 50 μM ATP, and 5 μM coenzyme A. After incubation, 3 μL of terbium conjugated AMP antibody and AMP tracer was added to the plates according to the methods described by BellBrook Labs. After an additional 30 min, the HTRF signal was measured using an Envision Plate reader. Data were normalized to % inhibition, where 100% inhibition is equal to the counts obtained in the absence of ACSS2, and 0% inhibition is equal to the counts obtained in the complete reaction including a DMSO control.
A robust biochemical screening assay was set up for testing compounds as potential ACSS2 inhibitors. […]

Drawing on patent US12281084B2, “Acetyl-CoA synthetase 2 (ACSS2) inhibitors and methods using same” (The Wistar Institute, priority 2019, dated 2025), this text covers IC50 for one molecule.

T1 sequence (Q9NR19 whole entry): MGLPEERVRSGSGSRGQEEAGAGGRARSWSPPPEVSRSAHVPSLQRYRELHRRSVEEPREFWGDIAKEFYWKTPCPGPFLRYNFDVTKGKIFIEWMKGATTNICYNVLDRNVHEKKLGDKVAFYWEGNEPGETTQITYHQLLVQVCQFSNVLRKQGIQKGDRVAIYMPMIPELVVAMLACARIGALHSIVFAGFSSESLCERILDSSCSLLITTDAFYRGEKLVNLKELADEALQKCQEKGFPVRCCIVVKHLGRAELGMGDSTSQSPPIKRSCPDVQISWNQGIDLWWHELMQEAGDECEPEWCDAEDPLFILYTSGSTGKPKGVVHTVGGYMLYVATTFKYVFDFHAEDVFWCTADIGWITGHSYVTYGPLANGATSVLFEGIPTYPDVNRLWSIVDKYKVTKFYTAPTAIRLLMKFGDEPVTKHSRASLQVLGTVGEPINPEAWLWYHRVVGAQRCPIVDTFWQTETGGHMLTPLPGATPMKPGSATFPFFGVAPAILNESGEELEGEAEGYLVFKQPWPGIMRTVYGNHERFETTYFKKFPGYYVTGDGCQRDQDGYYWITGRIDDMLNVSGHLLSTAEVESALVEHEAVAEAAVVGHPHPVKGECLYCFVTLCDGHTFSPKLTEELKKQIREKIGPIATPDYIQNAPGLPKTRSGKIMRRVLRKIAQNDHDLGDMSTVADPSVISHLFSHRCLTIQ

Regarding `COCCNC(=O)Nc1ccc2nc(-c3cccs3)c(-c3cccs3)nc2c1` [VY-3-249, 1-(2,3-di(thiophen-2-yl)quinoxalin-6-yl)-3-(2-methoxyethyl)urea], the IC50 was determined as 1.21 ± 0.128 µM.

One may read the IC50 as the concentration at which inhibition is half-maximal.
